According to ChEMBL document CHEMBL5346933, “Design and synthesis of novel arylurea derivatives of aryloxy(1-phenylpropyl) alicyclic diamines with antimicrobial activity against multidrug-resistant Gram-positive bacteria” (Eur J Med Chem, 2023):
Values after ≈ are worked out from the molar mass of the structure shown. Active and inactive are the calls of the source. No cut-off for these calls is given here.

Key:
Cell membrane [1] = assay: Induction of cell membrane depolarization in Staphylococcus aureus Newman assessed as bacterial cells with polarized membrane potential at 2XMIC incubated for 25 to 30 mins by DiOC2(3) probe based flow cytometry (reference value: 94.3%); type: subcellular; details: time 25-30 min
Cell membrane [2] = assay: Induction of cell membrane depolarization in Staphylococcus aureus Newman assessed as bacterial cells with depolarized membrane potential at 2XMIC incubated for 25 to 30 mins by DiOC2(3) probe based flow cytometry (reference value: 1.6%); type: subcellular; details: time 25-30 min
Klebsiella pneumoniae = assay: Antibacterial activity against Klebsiella pneumoniae ATCC 700603 assessed as inhibition of bacterial growth incubated for 18 hrs by broth microdilution method; type: functional
Cell membrane [3] = assay: Induction of cell membrane depolarization in methicillin-resistant Staphylococcus aureus 19449 assessed as bacterial cells with depolarized membrane potential at MIC incubated for 25 to 30 mins by DiOC2(3) probe based flow cytometry (reference value: 0.7%); type: subcellular; details: time 25-30 min
[4] = test system: Staphylococcus epidermidis; assay: Antibacterial activity against biofilm producer Staphylococcus epidermidis ATCC 35984 assessed as inhibition of bacterial growth incubated for 18 hrs by broth microdilution method; type: functional
Cell membrane [5] = assay: Induction of cell membrane depolarization in methicillin-resistant Staphylococcus aureus 19449 assessed as ratio of red to green fluorescence intensity at MIC incubated for 25 to 30 mins by DiOC2(3) probe based flow cytometry; type: subcellular; details: time 25-30 min
Staphylococcus aureus [6] = assay: Antibacterial activity against methicillin-susceptible Staphylococcus aureus ATCC 25923 assessed as inhibition of bacterial growth measured for 18 hrs by OD600 based analysis; type: functional, organism-based
[7] = test system: Staphylococcus epidermidis; assay: Bactericidal activity against biofilm producer Staphylococcus epidermidis ATCC 35984 assessed as reduction in colony forming units incubated for 18 hrs in broth followed by culturing on agar plate for 24 hrs; type: functional; details: time 42 hrs, read-out: MBC99.9
[8] = test system: Staphylococcus epidermidis; assay: Bactericidal activity against methicillin- susceptible Staphylococcus epidermidis ATCC 12228 assessed as reduction in colony forming units incubated for 18 hrs in broth followed by culturing on agar plate for 24 hrs; type: functional; details: time 42 hrs, read-out: MBC99.9
Streptococcus pneumoniae = assay: Antibacterial activity against Oxacillin-resistant Streptococcus pneumoniae O/19/4541 assessed as inhibition of bacterial growth incubated for 18 hrs by broth microdilution method; type: functional
Enterococcus faecium [9] = assay: Bactericidal activity against vancomycin-resistant Enterococcus faecium clinical strain assessed as reduction in colony forming units incubated for 18 hrs in broth followed by culturing on agar plate for 24 hrs; type: functional; details: time 42 hrs, read-out: MBC99.9
Pseudomonas aeruginosa = assay: Antibacterial activity against Pseudomonas aeruginosa ATCC 27853 assessed as inhibition of bacterial growth incubated for 18 hrs by broth microdilution method; type: functional
Staphylococcus aureus [10] = assay: Bactericidal activity against vancomycin-intermediate Staphylococcus aureus ATCC 700699 assessed as reduction in colony forming units incubated for 18 hrs in broth followed by culturing on agar plate for 24 hrs; type: functional; details: time 42 hrs, read-out: MBC99.9
Staphylococcus aureus [11] = assay: Antibacterial activity against methicillin-susceptible Staphylococcus aureus ATCC 25923 assessed as inhibition of bacterial growth incubated for 18 hrs by broth microdilution method; type: functional
Enterococcus faecalis [12] = assay: Bactericidal activity against Enterococcus faecalis ATCC 29212 assessed as reduction in colony forming units incubated for 18 hrs in broth followed by culturing on agar plate for 24 hrs; type: functional; details: time 42 hrs, read-out: MBC99.9
Cell membrane [13] = assay: Induction of cell membrane depolarization in methicillin-resistant Staphylococcus aureus 19449 assessed as bacterial cells with polarized membrane potential at 4 times MIC incubated for 25 to 30 mins by DiOC2(3) probe based flow cytometry (reference value: 98.8%); type: subcellular; details: time 25-30 min
Enterococcus faecalis [14] = assay: Antibacterial activity against Enterococcus faecalis ATCC 29212 assessed as inhibition of bacterial growth measured for 18 hrs by OD600 based analysis; type: functional, organism-based
Staphylococcus aureus [15] = assay: Bactericidal activity against vancomycin-intermediate Staphylococcus aureus ATCC 700699 assessed as log reduction of bacterial colony forming units at 4 times MIC incubated for 8 hrs in broth followed by culturing on agar plate for 24 hrs by time-killing assay; type: functional; details: time 32 hrs
Staphylococcus aureus [16] = assay: Antibacterial activity against Staphylococcus aureus Newman assessed as inhibition of bacterial growth incubated for 18 hrs by broth microdilution method; type: functional
Enterococcus faecium [17] = assay: Ratio of MBC to MIC for vancomycin-resistant Enterococcus faecium clinical strain; type: functional
Cell membrane [18] = assay: Induction of cell membrane depolarization in methicillin-resistant Staphylococcus aureus 19449 assessed as bacterial cells with depolarized membrane potential at 4 times MIC incubated for 25 to 30 mins by DiOC2(3) probe based flow cytometry (reference value: 0.7%); type: subcellular; details: time 25-30 min
Cell membrane [19] = assay: Induction of cell membrane depolarization in vancomycin-resistant Enterococcus faecium clinical strain assessed as bacterial cells with polarized membrane potential at 2XMIC incubated for 25 to 30 mins by DiOC2(3) probe based flow cytometry (reference value: 96.8%); type: subcellular; details: time 25-30 min
Enterococcus faecium [20] = assay: Antibacterial activity against vancomycin-resistant Enterococcus faecium assessed as inhibition of bacterial growth measured for 18 hrs by OD600 based analysis; type: functional, organism-based
Staphylococcus aureus [21] = assay: Ratio of MBC to MIC for vancomycin-intermediate Staphylococcus aureus ATCC 700699; type: functional
Escherichia coli = assay: Antibacterial activity against Escherichia coli ATCC 25922 assessed as inhibition of bacterial growth incubated for 18 hrs by broth microdilution method; type: functional
[22] = test system: Staphylococcus epidermidis; assay: Ratio of MBC to MIC for biofilm producer Staphylococcus epidermidis ATCC 35984; type: functional
Enterococcus faecalis [23] = assay: Antibacterial activity against Enterococcus faecalis ATCC 29212 assessed as inhibition of bacterial growth incubated for 18 hrs by broth microdilution method; type: functional
[24] = test system: Staphylococcus epidermidis; assay: Antibacterial activity against methicillin-susceptible Staphylococcus epidermidis ATCC 12228 assessed as inhibition of bacterial growth incubated for 18 hrs by broth microdilution method; type: functional
[25] = Cytotoxicity against human BJ cells assessed as reduction in cell viability incubated for 24 hrs by MTT assay; type: toxicity, cell-based
Staphylococcus aureus [26] = assay: Ratio of MBC to MIC for biofilm producer Staphylococcus aureus RN450; type: functional
[27] = Cytotoxicity against human MRC5 cells assessed as reduction in cell viability incubated for 24 hrs by MTT assay; type: toxicity, cell-based
Cell membrane [28] = assay: Induction of cell membrane depolarization in Staphylococcus aureus Newman assessed as bacterial cells with polarized membrane potential at 4 times MIC incubated for 25 to 30 mins by DiOC2(3) probe based flow cytometry (reference value: 94.3%); type: subcellular; details: time 25-30 min
[29] = test system: Staphylococcus epidermidis; assay: Bactericidal activity against linezolid-resistant Staphylococcus epidermidis NIL 4399/19 assessed as reduction in colony forming units incubated for 18 hrs in broth followed by culturing on agar plate for 24 hrs; type: functional; details: time 42 hrs, read-out: MBC99.9
Cell membrane [30] = assay: Induction of cell membrane depolarization in Staphylococcus aureus Newman assessed as bacterial cells with depolarized membrane potential at 4 times MIC incubated for 25 to 30 mins by DiOC2(3) probe based flow cytometry (reference value: 1.6%); type: subcellular; details: time 25-30 min
Staphylococcus aureus [31] = assay: Bactericidal activity against biofilm producer Staphylococcus aureus RN450 assessed as reduction in colony forming units incubated for 18 hrs in broth followed by culturing on agar plate for 24 hrs; type: functional; details: time 42 hrs, read-out: MBC99.9
[32] = Induction of hemolysis in horse RBC at 200 uM incubated for 1 hr; type: toxicity, cell-based, Equus caballus, Erythrocyte; details: horse red blood cells (erythrocytes), read-out: Activity
Staphylococcus aureus [33] = assay: Antibacterial activity against vancomycin-intermediate Staphylococcus aureus ATCC 700699 assessed as inhibition of bacterial growth measured for 18 hrs by OD600 based analysis; type: functional, organism-based

## O=C(Nc1cccc(Cl)c1)NC1CCN(CCC(Oc2cccc(C(F)(F)F)c2)c2ccccc2)CC1 (racemic)
Cell membrane [1]
  Activity: 0.1%
Cell membrane [2]
  Activity: 89.3%
Klebsiella pneumoniae
  MIC: > 12.5 µg/mL
Cell membrane [3]
  Activity: 91.6%
[4]
  MIC: 1.56 µg/mL (≈ 2.93 µM)
Cell membrane [5]
  Ratio: 0.53
Staphylococcus aureus [6]
  Activity: Active
[7]
  MBC: 6.25 µg/mL (≈ 11.7 µM)
[8]
  MBC: 3.12 µg/mL (≈ 5.87 µM)
Streptococcus pneumoniae
  MIC: 12.5 µg/mL (≈ 23.5 µM)
Enterococcus faecium [9]
  MBC: 6.25 µg/mL (≈ 11.7 µM)
Pseudomonas aeruginosa
  MIC: > 12.5 µg/mL
Staphylococcus aureus [10]
  MBC: 12.5 µg/mL (≈ 23.5 µM)
Staphylococcus aureus [11]
  MIC: 3.12 µg/mL (≈ 5.87 µM)
Enterococcus faecalis [12]
  MBC: 6.25 µg/mL (≈ 11.7 µM)
Cell membrane [13]
  Activity: 0%
Enterococcus faecalis [14]
  Activity: Active
Staphylococcus aureus [15]
  Activity: 2 log10CFU/ml
Staphylococcus aureus [16]
  MIC: 1.56 µg/mL (≈ 2.93 µM)
Enterococcus faecium [17]
  Ratio: 4
Cell membrane [18]
  Activity: 96.4%
Cell membrane [19]
  Activity: 0.3%
Enterococcus faecium [20]
  Activity: Active
Staphylococcus aureus [21]
  Ratio: 4
Escherichia coli
  MIC: > 12.5 µg/mL
[22]
  Ratio: 4
Enterococcus faecalis [23]
  MIC: 1.56 µg/mL (≈ 2.93 µM)
[24]
  MIC: 3.12 µg/mL (≈ 5.87 µM)
[25]
  IC50 at 24 h: > 25 µg/mL
Staphylococcus aureus [26]
  Ratio: 4
[27]
  IC50 at 24 h: 12.5 µg/mL (≈ 23.5 µM)
Cell membrane [28]
  Activity: 0%
[29]
  MBC: 6.25 µg/mL (≈ 11.7 µM)
Cell membrane [30]
  Activity: 89.8%
Staphylococcus aureus [31]
  MBC: 6.25 µg/mL (≈ 11.7 µM)
[32]
  hemolysis at 1 h, 200 µM: < 1%
Staphylococcus aureus [33]
  Activity: Active
